Data from patent US20030134859A1 (SANKYO COMPANY, LIMITED, priority 2000, published 2003).
Where a name gives a salt, the structure may show the parent alone.

System: TNF-α production
Assay: Inhibitory activity against cytokine (TNF-α) production in LPS-stimulated RAW264.7 cells
Assay type: cell-based, mouse
Conditions: 1 μM test compound, LPS 10 ng/mL; for inhibition at 1 µM: Mus musculus
Summary of the method: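 Mouse RAW264.7 macrophages (5,000 cells/well) stimulated with 10 ng/mL LPS (final) and treated with test compound at 1 μM final for 15 h at 37 °C. Supernatant mouse TNF-α measured by ELISA; % inhibition = 100−(A−B)/(C−B)×100, using unstimulated and LPS-only controls.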

O=C(Nc1ccc(-c2ccc([N+](=O)[O-])cc2)cc1)c1cc([N+](=O)[O-])ccc1Cl [Example 9, N-[4-(4-Nitrophenyl)phenyl)-(2-chloro-5-nitrophenyl)carboxamide]
inhibition at 1 µM (15 hr): 34%

O=C(Nc1ccc(OC(F)(F)F)cc1)c1cc([N+](=O)[O-])ccc1Cl [Example 18, N-(4-Trifluoromethyloxyphenyl)-(2-chloro-5-nitrophenyl)carboxamide]
inhibition at 1 µM (RAW264.7, 15 h): 16.8%

O=C(Nc1ccc([N+](=O)[O-])cc1)c1cc([N+](=O)[O-])ccc1Cl [Example 23, N-(4-Nitrophenyl)-(2-chloro-5-nitrophenyl)carboxamide]
inhibition at 1 µM (15 hr): 24.4%

O=C(Nc1ccc([N+](=O)[O-])cn1)c1cc([N+](=O)[O-])ccc1Cl [Example 24, N-(5-Nitropyridin-2-yl)-(2-chloro-5-nitrophenyl)carboxamide]
inhibition at 1 µM (15 hr): 30.1%

Cc1ccc(S(=O)(=O)Nc2ccc(NC(=O)c3cc([N+](=O)[O-])ccc3Cl)cc2)cc1 [Example 32, N-[4-(4-Methylbenzene)sulfonylaminophenyl]-(2-chloro-5-nitrophenyl)carboxamide]
Inhibitory Activity (%) against TNF-α production (15 hr): 19.8%

O=C(Nc1nc2ccc([N+](=O)[O-])cc2s1)c1cc([N+](=O)[O-])ccc1Cl [Example 34, N-(6-Nitrobenzothiazol-2-yl)-(2-chloro-5-nitrophenyl)carboxamide]
inhibition at 1 µM (15 hr): 15.2%

O=C(Nc1nc(-c2cccs2)cs1)c1cc([N+](=O)[O-])ccc1Cl [Example 36, N-[4-(2-Thienyl)thiazol-2-yl)-(2-chloro-5-nitrophenyl)carboxamide]
inhibition at 1 µM (RAW264.7, 15 h): 18%

O=C(Nc1nc(-c2ccc3ccccc3c2)cs1)c1cc([N+](=O)[O-])ccc1Cl [Example 42, N-[4-(2-Naphthyl)thiazol-2-yl)-(2-chloro-5-nitrophenyl)carboxamide]
inhibition at 1 µM (RAW264.7, 15 h): 18.8%

O=C(Nc1nc(-c2ccc(Cl)c(Cl)c2)cs1)c1cc([N+](=O)[O-])ccc1Cl [Example 43, N-[4-(3,4-Dichlorophenyl)thiazol-2-yl]-(2-chloro-5-nitrophenyl)carboxamide]
inhibition at 1 µM (RAW264.7, 15 h): 17.7%

O=C(Nc1cnc2ccccc2c1)c1cc([N+](=O)[O-])ccc1Cl [Example 55, N-(3-Quinolinyl)-(2-chloro-5-nitrophenyl)carboxamide]
inhibition at 1 µM (RAW264.7, 15 h): 15.3%

O=C(Nc1ccc(Cl)nc1)c1cc([N+](=O)[O-])ccc1Cl [Example 62, N-(6-Chloropyridin-3-yl)-(2-chloro-5-nitrophenyl)carboxamide]
inhibition at 1 µM (RAW264.7, 15 h): 20.5%

Nc1ccc(-c2ccc(NC(=O)c3cc([N+](=O)[O-])ccc3Cl)cc2)cc1 [Example 88, N-[4-(4-Aminophenyl)phenyl]-(2-chloro-5-nitrophenyl)carboxamide mono-hydrochloride]
inhibition at 1 µM (RAW264.7, 15 h): 28%

CS(=O)(=O)Nc1ccc(-c2ccc(NC(=O)c3cc([N+](=O)[O-])ccc3Cl)cc2)cc1 [Example 93, N-[4-[4-(Methanesulfonylamino)phenyl]phenyl]-(2-chloro-5-nitrophenyl)carboxamide]
inhibition at 1 µM (RAW264.7, 15 h): 15.6%

Cc1ccc(S(=O)(=O)Nc2ccc(-c3ccc(NC(=O)c4cc([N+](=O)[O-])ccc4Cl)cc3)cc2)cc1 [Example 94, N-[4-[4-(4-Toluenesulfonylamino)phenyl]phenyl]-(2-chloro-5-nitrophenyl)carboxamide]
inhibition at 1 µM (RAW264.7, 15 h): 34.8%

O=C(Nc1ccc(N2CCCCC2)cc1)c1cc([N+](=O)[O-])ccc1Cl [Example 114, N-[4-(Piperidin-1-yl)phenyl]-(2-chloro-5-nitrophenyl)carboxamide]
inhibition at 1 µM (RAW264.7, 15 h): 16.8%

CC(=O)Nc1ccc(-c2ccc(NC(=O)c3cc([N+](=O)[O-])ccc3Cl)cc2)cc1 [Example 118, N-[4-(4-Acetylaminophenyl)phenyl]-(2-chloro-5-nitrophenyl)carboxamide]
inhibition at 1 µM (RAW264.7, 15 h): 16.4%

Cc1ccc2nc(NC(=O)c3cc([N+](=O)[O-])ccc3Cl)sc2c1 [Example 141, N-(6-Methybenzothiazol-2-yl)-(2-chloro-5-nitrophenyl)carboxamide]
Inhibitory Activity (%) against TNF-α production (15 hr): 15.9%

Cc1ccc(C(=O)Nc2nc3ccc(NC(=O)c4cc([N+](=O)[O-])ccc4Cl)cc3s2)cc1 [Example 149, N-[2-(4-Methylbenzoylamino)benzothiazol-6-yl]-(2-chloro-5-nitrophenyl)carboxamide]
inhibition at 1 µM (RAW264.7, 15 h): 18.8%

CCc1ccc(S(=O)(=O)Nc2ccc(NC(=O)c3cc([N+](=O)[O-])ccc3Cl)cc2)cc1 [Example 150, N-[4-(4-Ethylbenzenesulfonylamino)phenyl]-(2-chloro-5-nitrophenyl)carboxamide]
inhibition at 1 µM (RAW264.7, 15 h): 16.2%

CC(C)(C)c1cc(NS(=O)(=O)c2ccc(NC(=O)c3cc([N+](=O)[O-])ccc3Cl)cc2)cc(C(C)(C)C)c1O [Example 175, N-[4-[(3,5-di-tert-Butyl-4-hydroxyphenyl)aminosulfonyl]phenyl]-(2-chloro-5-nitrophenyl)carboxamide]
inhibition at 1 µM (RAW264.7, 15 h): 15.7%

CCCN(CCC)c1ccc(NC(=O)c2cc([N+](=O)[O-])ccc2Cl)cc1 [Example 182, N-[4-(N,N-Dipropylamino)phenyl]-(2-chloro-5-nitrophenyl)carboxamide]
inhibition at 1 µM (RAW264.7, 15 h): 32.8%

O=C(Nc1ccc(N2CCN(C(=O)c3ccccc3)CC2)cc1)c1cc([N+](=O)[O-])ccc1Cl [Example 184, N-[4-(4-Benzoylpiperazin-1-yl)phenyl]-(2-chloro-5-nitrophenyl)carboxamide]
inhibition at 1 µM (RAW264.7, 15 h): 15%

CCCCCCN(CC)c1ccc(NC(=O)c2cc([N+](=O)[O-])ccc2Cl)cc1 [Example 188, N-[4-(N-Ethyl-N-hexylamino)phenyl]-(2-chloro-55 nitrophenyl)carboxamide]
inhibition at 1 µM (RAW264.7, 15 h): 24.2%

CC(C)(C)OC(=O)Nc1ccc(-c2csc(NC(=O)c3cc([N+](=O)[O-])ccc3Cl)n2)cc1 [Example 190, N-[4-(4-tert-Butoxycarbonylaminophenyl)thiazol-2-yl]-(2-chloro-5-nitrophenyl)carboxamide]
inhibition at 1 µM (RAW264.7, 15 h): 33.8%

Nc1ccc(-c2ccc(NC(=O)c3cc([N+](=O)[O-])ccc3Cl)cc2)cc1 [Example 192, N-[4-(4-Aminophenyl)phenyl]-(2-chloro-5-nitrophenyl)carboxamide]
Inhibitory Activity (%) against TNF-α production (15 hr, 1 µM): 27.9%

CCCN(CCC)c1ccc(-c2ccc(NC(=O)c3cc([N+](=O)[O-])ccc3Cl)cc2)cc1 [Example 194, N-[4-[4-(N,N-Dipropylamino)phenyl]phenyl]-(2-chloro-5-nitrophenyl)carboxamide]
inhibition at 1 µM (RAW264.7, 15 h): 18.4%

CCCCNc1ccc(-c2ccc(NC(=O)c3cc([N+](=O)[O-])ccc3Cl)cc2)cc1 [Example 203, N-[4-[4-(N-Butylamiino)phenyl]phenyl]-(2-chloro-5-nitrophenyl)carboxamide]
Inhibitory Activity (%) against TNF-α production (15 hr): 27.1%

CCCNc1ccc(-c2ccc(NC(=O)c3cc([N+](=O)[O-])ccc3Cl)cc2)cc1 [Example 204, N-[4-[4-(N-Propylamino)phenyl]phenyl]-(2-chloro-5-nitrophenyl)carboxamide]
inhibition at 1 µM (RAW264.7, 15 h): 32.7%

CCNc1ccc(-c2ccc(NC(=O)c3cc([N+](=O)[O-])ccc3Cl)cc2)cc1 [Example 205, N-[4-[4-(N-Ethylamino)phenyl]phenyl]-(2-chloro-5-nitrophenyl)carboxamide]
inhibition at 1 µM (RAW264.7, 15 h): 34.9%

CCCCCN(CCCC)c1ccc(-c2ccc(NC(=O)c3cc([N+](=O)[O-])ccc3Cl)cc2)cc1 [Example 206, N-[4-[4-(N-Butyl-N-pentylamino)phenyl]phenyl]-(2-chloro-5-nitrophenyl)carboxamide]
inhibition at 1 µM (RAW264.7, 15 h): 27.5%

CCCCN(CCCC)c1ccc(-c2ccc(NC(=O)c3cc([N+](=O)[O-])ccc3Cl)cc2)cc1 [Example 207, N-[4-[4-(N,N-Dibutylamino)phenyl]phenyl]-(2-chloro-5-nitrophenyl)carboxamide]
inhibition at 1 µM (RAW264.7, 15 h): 27.1%

CCCCN(CCC)c1ccc(-c2ccc(NC(=O)c3cc([N+](=O)[O-])ccc3Cl)cc2)cc1 [Example 208, N-[4-[4-(N-Butyl-N-propylamino)phenyl]phenyl]-(2-chloro-5-nitrophenyl)carboxamide]
inhibition at 1 µM (RAW264.7, 15 h): 26.3%

CCCCN(CC)c1ccc(-c2ccc(NC(=O)c3cc([N+](=O)[O-])ccc3Cl)cc2)cc1 [Example 209, N-[4-[4-(N-Butyl-N-ethylamino)phenyl]phenyl]-(2-chloro-5-nitrophenyl)carboxamide]
inhibition at 1 µM (RAW264.7, 15 h): 26.9%

CCCN(CC)c1ccc(-c2ccc(NC(=O)c3cc([N+](=O)[O-])ccc3Cl)cc2)cc1 [Example 212, N-[4-[4-(N-Ethyl-N-propylamino)phenyl]phenyl]-(2-chloro-5-nitrophenyl)carboxamide]
inhibition at 1 µM (RAW264.7, 15 h): 31.2%

CCCCCN(CCCCC)c1ccc(-c2ccc(NC(=O)c3cc([N+](=O)[O-])ccc3Cl)cc2)cc1 [Example 214, N-[4-[4-(N,N-Dipentylamino)phenyl]phenyl]-(2-chloro-5-nitrophenyl)carboxamide]
inhibition at 1 µM (RAW264.7, 15 h): 20.1%

CCCCCN(CC)c1ccc(-c2ccc(NC(=O)c3cc([N+](=O)[O-])ccc3Cl)cc2)cc1 [Example 216, N-[4-[4-(N-Ethyl-N-pentylamino)phenyl]phenyl]-(2-chloro-5-nitrophenyl)carboxamide]
inhibition at 1 µM (RAW264.7, 15 h): 30.6%

CCN(CC)c1ccc(-c2ccc(NC(=O)c3cc([N+](=O)[O-])ccc3Cl)cc2)cc1 [Example 217, N-[4-[4-(N,N-Diethylamino)phenyl]phenyl]-(2-chloro-5-nitrophenyl)carboxamide]
inhibition at 1 µM (RAW264.7, 15 h): 28.7%

CCN(C)c1ccc(-c2ccc(NC(=O)c3cc([N+](=O)[O-])ccc3Cl)cc2)cc1 [Example 218, N-[4-[4-(N-Ethyl-N-methylamino)phenyl]phenyl]-(2-chloro-5-nitrophenyl)carboxamide]
inhibition at 1 µM (RAW264.7, 15 h): 20.3%

O=C(Nc1ccc(-c2ccc(NC(=S)Nc3cccc(F)c3)cc2)cc1)c1cc([N+](=O)[O-])ccc1Cl [Example 245, N-[4-[4-[(3-Fluorophenyl)aminothiocarbonylamino]phenyl]phenyl]-(2-chloro-5-nitrophenyl)carboxamide]
inhibition at 1 µM (RAW264.7, 15 h): 34.6%
